Laboratory results from article PMC6143625, “A high throughput screen for next-generation leads targeting malaria parasite transmission” (Nature Communications, 2018).
Like-named read-outs stand apart in the source and are kept apart here.

Key:
[1] = system: P. falciparum 3D7 asexual blood stages; assay: Whole-cell time extended asexual growth assay (pLDH); format: cell-based; settings: Plasmodium falciparum; for inhibition at 2 µM: primary screen, read-out: %Inh Asex stages @2uM
Protocol: Asexual activity was assayed via Plasmodium lactate dehydrogenase activity (pLDH), a surrogate of asexual parasite growth. […] 2 µM artesunate and DMSO were used as the positive and negative controls, respectively. […] After plate mixing, NBT reduction was measured by absorbance at 650 nm using Envision (Perkin Elmer).

[2] = system: P. falciparum stage V female gametocytes (female gamete formation); assay: P. falciparum dual gamete formation assay (Pf DGFA), female readout (Pfs25 expression), 48 h carry-over format; format: cell-based, Plasmodium falciparum NF54; settings: Plasmodium falciparum; for inhibition at 2 µM: primary screen, single replicate
[3] = system: P. berghei-ANKA-GFP-Luc-SMCON sporozoites in HepG2-A16-CD81EGFP cells; assay: P. berghei liver stage assay (luciferase sporozoite HepG2 invasion); format: cell-based; settings: Plasmodium berghei, 48h incubation, read-out: Pb Liver invasion assay IC50
Protocol: Compound inhibition of P. berghei sporozoite liver infection was assessed in a high-throughput luciferase assay. 1536-well plates (789173-F, Greiner Bio-One) were pre-seeded with 5 µl HepG2-A16-CD81^EGFP cells grown in DMEM (11965–092, Invitrogen) containing 10% FBS (35–011-CV, Corning) and 1× Pen Strep Glutamine (10378–016, Invitrogen). Then, 50 nl of compound in DMSO was dispensed in 12-point serial dilution dose-response format (50 µM to 2.82 × 10^−4 µM), and incubated overnight.A. stephensi mosquitoes infected with P. berghei-ANKA-GFP-Luc-SMCON (Pb-Luc)[41] sporozoites bearing the antifolate-resistance-conferring Toxoplasma gondii dihydrofolate reductase-thymidylate synthase selectable marker, pyR2. After dissection, ~1000 sporozoites in 5 µl screening media (DMEM, 11965–092, Invitrogen; 5% FBS, 35–011-CV, Corning; 5x Pen Strep Glutamine, 10378–016, Invitrogen) were added per well and incubated for 48 h (37 °C, 5% CO2). Bioluminescence was measured using an EnVision microplate reader (Perkin Elmer), following the addition of 2 µl per well of Bright-Glo™ (Promega). Compound toxicity against HepG2 cells was determined in parallel by measuring cellular ATP levels reported by luciferase activity. Methods were similar to the P. berghei liver stage assay, except for the addition of CellTiter-Glo® (Promega) as a detection reagent. DMSO (0.5%) was used as a negative control in both assays, with Atovaquone (5 µM) and Puromycin (10 µM) acting as positive controls in the P. berghei and toxicity assays, respectively.

[4] = system: P. falciparum male gamete formation; assay: Pf DGFA add-in format, male readout; format: cell-based, Plasmodium falciparum; settings: for IC50: Plasmodium falciparum, 0h preincubation/add-in
Protocol: (§1) In profiling mode, the Pf DGFA was performed in 96-well plates[23] in wash-out and add-in formats to aid manual manipulation steps. In the wash-out format, gametocytes were incubated for 24 h with test compounds in round-bottomed 96 well plates and then culture medium replaced three times over 6 h, to remove as much of the compound as possible from the well. […] In add-in format, gametocytes were added directly to flat-bottomed 96-well plates containing test compounds, ookinete medium and anti-Pfs25.

[5] = system: P. falciparum stage V male gametocytes (male gamete formation); assay: P. falciparum dual gamete formation assay (Pf DGFA), male readout (exflagellation), 48 h carry-over format; format: cell-based, Plasmodium falciparum NF54; settings: Plasmodium falciparum, 24h preincubation/carry-over
[6] = system: P. falciparum female gamete formation; assay: Pf DGFA add-in format, female readout; format: cell-based; settings: Plasmodium falciparum; 0h preincubation/add-in
Protocol: as §1

[7] = system: HepG2 human cells; set-up: method as in http://dx.doi.org/10.6019/CHEMBL3507680; settings: ref http://dx.doi.org/10.6019/CHEMBL3507680; cited from earlier work
[8] = 72h incubation, read-out: Pf Asexual IC50
[9] = 24h preincubation/carry-over, read-out: Pf DGFA Female IC50
[10] = 48 h, dose response retest of primary hits, 48 h incubation, read-out: Female IC50
[11] = 48h preincubation/carry-over, read-out: Pf DGFA Female IC50
[12] = dose response retest, 72 h, read-out: IC50 (µM) Asex stages

| Compound | IC50 [1, 8] [µM] | IC50 [2, 9] [µM] | IC50 [2, 10] [µM] | IC50 [2, 11] [µM] | inhibition at 2 µM ([2]; 48 h incubation) [%] | IC50 [3] [µM] | IC50 [4] [µM] | IC50 [5] [µM] | IC50 [6] [µM] | %Inh HepG2 @10uM [7] [%] | activity in the add-in format ([4]; profiling) | IC50 [1, 12] [µM] | inhibition at 2 µM ([1]; 72 h) [%] |
| --- | --- | --- | --- | --- | --- | --- | --- | --- | --- | --- | --- | --- | --- |
| Cc1nn(C)c(Oc2ccc(Cl)cc2)c1CN1CCC(CN)C1 (stereo not shown) [DDD01254274] | > 20 | > 25 | > 10 | > 25 | < 30 | > 50 | > 10 | > 25 | > 10 | -8.55 | – | – | – |
| CCc1ccc(C2c3nc[nH]c3CCN2Cc2nccn2CC)nc1 (stereo not shown) [DDD01254473] | > 20 | > 25 | 2.79 | 0.167 | 30.5 | > 50 | > 10 | > 25 | > 10 | 33.1 | – | – | – |
| CCOc1ccc2ccccc2c1CNCC1CCNCC1.Cl.Cl [DDD01255740] | 3.56 | > 25 | > 10 | 1.88 | < 30 | 13.2 | > 10 | 4.1 | > 10 | 9.2 | – | – | – |
| Cc1ccc(-c2cc(C(=O)NCCC3=CCCCC3)[nH]n2)o1 [DDD01255968] | > 20 | > 12.5 | > 10 | > 12.5 | < 30 | 17.6 | 0.32 | 1.17 | > 10 | -10.6 | active | – | – |
| CCn1ncc(Br)c1CN(C)S(=O)(=O)c1ccc(C)cc1 [DDD01259521] | 1.06 | > 12.5 | – | > 12.5 | – | 8.64 | > 10 | > 12.5 | > 10 | 8.37 | – | 1.02 | 56.1 |
| c1cnnc(N2CCCC2CNc2ncnc3sccc23)c1 (stereo not shown) [DDD01299704] | 0.44 | > 12.5 | – | > 12.5 | – | 16.4 | > 10 | > 12.5 | > 10 | -7.82 | – | 0.532 | 66.7 |
